Experimental data from PubChem BioAssay AID2102 (Southern Research Specialized Biocontainment Screening …, 2009).

System: Host cell viability cytotoxicity counter-screen, SV40 T antigen hits
Test: host cell cytotoxicity, dose response, cytotoxicity control for SV40 T antigen inhibitor project, selected hits (AID 2102);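 note: cells exposed to compounds for 72 hours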

SMILES	CC50 [µM]
Oc1ccc(Nc2nc(N3CCCC3)c3ccccc3n2)cc1	30.7
Cc1c(C)n(Cc2ccccc2)c2ncnc(NN)c12	6.12
Cc1ccc(C2(C)NC(=O)N(CC(=O)Nc3nc(-c4ccccn4)cs3)C2=O)cc1 (centres undefined)	11.3
Cc1cc2c(N=O)c(NO)ccc2[nH]1	22.1
CC1=NOC(=O)/C1=C\c1ccc(-c2ccccc2Br)o1	24.7
Oc1ccc(/C=N/Nc2ccc(C(F)(F)F)cn2)cc1O	34.6
CCS(=O)(=O)c1ncc(Cl)c(C(=O)Nc2ccc(S(=O)(=O)N3CCCC(C)C3)cc2)n1 (centres undefined)	31.2
CCN(CC)c1ccc(NC(=O)C2CC(=O)N(Cc3ccccc3)C2)cc1 (centres undefined)	42.7
Cc1ccc(-c2ccc(/C=C3\C(=O)ON=C3c3ccccc3)o2)c([N+](=O)[O-])c1	37.5
Cc1ccc(/C=N/n2c(-c3ccco3)n[nH]c2=S)cc1	24.7
CCOc1c(Br)cc(CNc2ccc(N3CCN(C(C)=O)CC3)cc2)cc1OC	14.2
CC(=O)N(c1ccc2oc(=O)sc2c1)S(=O)(=O)c1cccs1	33.8
CC(C)c1ccc(S(=O)(=O)N2CCN(CC(=O)c3ccc(O)c(O)c3)CC2)cc1	31.3
CC1=C(C(=O)OCC(C)C)C(c2cccs2)NC(=S)N1 (centres undefined)	21
O=S(=O)(c1ccc(NC(=S)N2CCN(c3ccc(O)cc3)CC2)cc1)N1CCOCC1	33
CNc1nc(-c2ccccc2)[n+](-c2ccc(C)cc2)s1	36.2
O=C(N/N=C/c1cc(Br)c(O)c(Br)c1)c1cc2c(ccc3ccccc32)o1	32.3
COc1ccc(-n2c(=O)c3c4c(sc3n3c(=S)[nH]nc23)COC(C(C)C)C4)cc1 (centres undefined)	40.1
Cc1ccccc1-n1sc2cc(F)ccc2c1=O	14.6
COc1cc(CNc2ccc(N3CCCCC3)cc2)ccc1OCC(=O)NC(C)(C)C	24.5
COCCN=C1Sc2nc3c(C)cccc3cc2CN1Cc1ccco1	23
CN(C)c1ccc(NS(=O)(=O)c2cccc(Cl)c2)cc1	47.2
CCOC(=O)c1c(N2C(=O)Nc3cc(Cl)c(Cl)cc3N2O)sc2c1CCCCC2	15.6
CCCc1nc2ccccc2c(=O)n1/N=C/c1ccc(O)c(O)c1	48.4

SMILES	CC50 [µM]
CC(=O)Nc1sc(N/N=C\c2ccco2)nc1-c1cccs1	49.8
O=c1oc2cc(O)ccc2s1	31.2
O=C1NC(=S)S/C1=C\c1ccc(SCc2ccccc2)o1	30
Cc1ccc(S(=O)(=O)N2CCCOC2CNC(=O)C(=O)NCCc2c[nH]c3ccccc23)cc1 (centres undefined)	27.7
CCC[n+]1c2ccccc2cc2ccccc21	23.8
Oc1cc2c(c(Cl)c1O)CCNCC2c1ccccc1 (centres undefined)	41
CCN(CC)c1ccc(/C=C2\C(=O)N(c3nnc(C)c(=O)[nH]3)N=C2C)cc1	46.4
Cc1ccc(-n2sc3ccccc3c2=O)cc1S(=O)(=O)N1CCCCC1	14.7
COC1=C(Nc2ccc(O)cc2)C(=O)c2ccccc2C1=O	16.5
Cc1ccc(S(=O)(=O)N2[C@@H](c3ccc(Cl)cc3)C(C(=O)O)=CC[C@H]2c2ccc(Cl)cc2)cc1	30.7
CCCc1cc(-c2n[nH]c(C(=O)OCC)c2-c2cscn2)c(O)cc1O	11.1
CCS(=O)(=O)c1ncc(Cl)c(C(=O)Nc2ccc(S(=O)(=O)N3CCC(C)CC3)cc2)n1	48.6
O=C(CCl)Nc1ccc(N2CCCCCC2)cc1	47.1
COc1ccc(NC2CCCN(Cc3cccc4cnccc34)C2)cc1OC (centres undefined)	35.9
C=CCn1c(=S)[nH]c2scc(-c3ccco3)c2c1=O	32.5
Cc1ccc(OCCC(=O)N2CCN(c3ccc(O)cc3)CC2)cc1	20.7
Cc1ccc(/C=C2/SC(=O)NC2=S)o1	48.1
CN1\C(=C/C=C/C=C/C=[N+](C)C)C(C)(C)c2ccccc21	21.7
Cc1ccc2nc(-c3ccccn3)c(NC3CCCC3)n2c1	15.1
CCOc1cc(N2CCOCC2)c(OCC)cc1NS(=O)(=O)c1ccc(Cl)s1	40
CCOc1ccc(NCc2cccn2-c2nnc(N3CCC(C(=O)NCCCN4CC(C)CC(C)C4)CC3)s2)cc1 (centres undefined)	36.9
CCCCCCCCCCCCCCCC[N+](C)(C)CCN(Cc1ccc(OC)cc1)c1ncccn1	7.39
C=C1C(=O)O[C@H]2[C@H]1[C@H](OC(=O)CC(=O)O[C@@H]1C[C@@H](C)[C@@H]3C=CC(=O)[C@@]3(C)[C@H]3OC(=O)C(=C)[C@H]13)C[C@@H](C)[C@H]1C=CC(=O)[C@]12C	3.95
O=c1cc(-c2ccc(O)c(O)c2)oc2cc(O)cc(O)c12	47.9

SMILES	CC50 [µM]
COc1cc(/C=C/C(=O)c2ccc([N+](=O)[O-])o2)ccc1O	44.1
O=c1c2ccccc2nc(COc2ccccc2)n1/N=C/c1ccc(O)c(O)c1	33.8
COc1ccc(N2CCC(CNC(=S)Nc3c(C)cccc3C)C2)cc1 (centres undefined)	45.8
Cc1cc(C(=O)c2cccs2)c(N)s1	35.8
COc1cccc(-n2c(SCc3cc(=O)oc4cc(O)c(O)cc34)nc3ccccc3c2=O)c1	18.2
C=CCn1c(SCC(C)=O)nc2scc(-c3ccco3)c2c1=O	48.4
O=C(O)c1ccc(-n2cccc2/C=C2/NC(=O)N(c3ccccc3)C2=O)cc1	15.6
Cc1ccccc1/C=C/C(=O)c1ccc([N+](=O)[O-])o1	23.6
CCN(CC)c1ccc(/C=N/N2CCOCC2)cc1	49.4
COc1cc(CNc2ccc(N3CCOCC3)cc2)ccc1OCC(=O)NC(C)(C)C	30.8
CC(=O)N(c1ccc2oc(=O)sc2c1)S(=O)(=O)c1ccccc1	36.8
COc1cnc(-c2ccccn2)nc1Oc1ccc(Cl)c2ccccc12	13.7
COc1cccc(CNc2ccc3[nH]c(=O)[nH]c3c2)c1OCc1ccccc1	37
CCCCNC(=O)c1sc(=S)n2c1[nH]c(=O)c1ccccc12	31.8
COc1cc(-c2cc(=O)c3ccccc3o2)ccc1O	35.7
COc1ccc(N2CCC(CNC(=S)Nc3ccc(C)cc3C)C2)cc1 (centres undefined)	15
CCOC(=O)c1[nH]nc(-c2cc(CC)c(O)cc2O)c1-c1cscn1	33.7
COc1ccc(N2CCC(CNC(=S)Nc3c(C)cc(C)cc3C)C2)cc1 (centres undefined)	15.9
CCN(CC)c1ccc(NC(=O)CCNS(=O)(=O)c2ccc3c(c2)CCC(=O)N3)c(C)c1	42.2
Oc1ccc(CCNc2c3ccccc3nc3ccccc23)cc1O	39.3
CC(/C=C1\SC(=S)N(CCCC(=O)Nc2ccc(C(=O)O)c(O)c2)C1=O)=C\c1ccccc1	38.4
COc1cc(OC)c(-c2c3cc(O)c(=O)cc-3oc3cc(O)c(O)cc23)cc1OC	47.7
CN(C)S(=O)(=O)c1cccc(-n2sc3ccccc3c2=O)c1	30.4
O=C(c1ccccc1)N1CCN(c2ccc(NCc3ccc4c(c3)OCO4)cc2)CC1	17.3

SMILES	CC50 [µM]
O=C(CCOc1ccccc1)N1CCN(c2ccc(O)cc2)CC1	31.5
CCCC[n+]1c2ccccc2cc2ccccc21	23.9
O=c1cc2oc3cc(O)c(O)cc3c(-c3ccccc3[N+](=O)[O-])c-2cc1O	24.1
Oc1ccc(N2CCN(C(=S)NCCc3ccccc3)CC2)cc1	45
O=C1NC(=Nc2ccc(O)cc2)S/C1=C\C=C\c1ccco1	30.2
O=[N+]([O-])c1ccc(-[n+]2ccc3ccccc3c2)c([N+](=O)[O-])c1	29
O=C(/C=C/c1ccc(O)c(O)c1)c1ccccc1O	26.3
O=C1NC(=S)S/C1=C\c1ccc(SCc2ccco2)o1	15.2
CCOc1c(Br)cc(CNc2ccc(N3CCOCC3)cc2)cc1OC	13.8
COc1cc(Cl)ccc1NC(=O)COc1ccccc1C(=O)N1CCN(c2ccc(O)cc2)CC1	33.7
Nc1cnc(Nc2ccc(Br)cc2)nc1N	42.2
O=C(NC1CCCC1)c1sc(=S)n2c1[nH]c(=O)c1ccccc12	15.9
CCCCC(CC)CN=C(N)NC(N)=NCCCCCCN=C(N)NC(N)=NCC(CC)CCCC (centres undefined)	3.49
N#Cc1ccccc1CN1C(=O)S/C(=C/c2cccn2-c2cccc(C(=O)O)c2)C1=O	16.9
CCOc1ccc(NCc2cccn2-c2nnc(N3CCC(C(=O)NCCCN4CCCCC4CC)CC3)s2)cc1 (centres undefined)	49.8
Clc1ccccc1CSc1nnc(-c2ccco2)c(-c2ccco2)n1	24.6
Oc1ccc(-c2[nH]ncc2-c2cccc3cccnc23)c(O)c1	17.3
O=C1C(SCCO)=C(SCCO)C(=O)c2ccccc21	28.2
O=C(NN1C(=O)/C(=C/C=C/c2ccco2)SC1=S)c1ccccc1O	40.6
O=C(CCSc1ccc(Cl)cc1)N1CCN(c2ccc(O)cc2)CC1	14.6
Cc1c(Br)c(=O)oc2c(Br)c(O)c(O)cc12	49.2
Cc1nc2ncccn2c1-c1csc(Nc2ccc(N(C)C)cc2)n1	27.5
